Assay results from patent US20250215030A1, “STAT MODULATORS AND USES THEREOF” (Recludix Pharma, Inc., priority 2022, published 2025).

Key:
[1] = target: T1, Recombinant STAT6 protein (STAT6(W123-T658)) (Homo sapiens, UniProt P42226); assay: STAT6 Fluorescence Polarization (FP) Assay; assay type: binding; conditions: STAT6(W123-T658) 250 nM, probe 5-FAM-ApYKPFQDLI-NH2 2 nM, 45-minute incubation
T1 construct: STAT6(W123-T658)
T1 sequence (P42226 123-658): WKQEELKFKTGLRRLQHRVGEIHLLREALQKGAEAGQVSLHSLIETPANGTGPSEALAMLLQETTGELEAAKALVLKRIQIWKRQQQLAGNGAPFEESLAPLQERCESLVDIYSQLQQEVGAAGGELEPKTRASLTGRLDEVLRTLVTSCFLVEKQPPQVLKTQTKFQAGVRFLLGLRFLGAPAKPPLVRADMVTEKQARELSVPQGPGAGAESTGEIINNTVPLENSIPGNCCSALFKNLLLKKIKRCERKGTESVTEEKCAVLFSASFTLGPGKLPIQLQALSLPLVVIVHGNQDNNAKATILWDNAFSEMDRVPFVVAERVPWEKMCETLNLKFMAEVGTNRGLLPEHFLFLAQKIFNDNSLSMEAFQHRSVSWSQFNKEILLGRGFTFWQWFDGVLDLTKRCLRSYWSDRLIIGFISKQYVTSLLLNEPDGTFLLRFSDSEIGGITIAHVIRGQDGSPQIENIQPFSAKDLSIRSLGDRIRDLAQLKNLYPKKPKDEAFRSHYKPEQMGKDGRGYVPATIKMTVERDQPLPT
How it was run: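 Competitive displacement of a fluorescent phosphotyrosine peptide (2 nM) from recombinant STAT6 W123-T658 (250 nM), 45 min at room temperature in 10 mM HEPES pH 7.4, 50 mM NaCl, 2 mM DTT. mP fitted against log compound for IC50, grouped A (≤300 nM) to D (>30 μM).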

[2] = target: T2, Recombinant STAT3 protein (STAT3(G127-I722)) (Homo sapiens, UniProt P40763); assay: STAT3 Fluorescence Polarization (FP) Assay; assay type: binding; conditions: STAT3(G127-I722) 25 nM, probe 5-FAM-GpYLPQTV-NH2 2 nM, 45-minute incubation
T2 construct: STAT3(G127-I722)
How it was run: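 Serially diluted compounds (1% DMSO) were mixed with 2 nM fluorescent phosphotyrosine peptide and 25 nM STAT3 construct G127-I722, pH 7.4, incubated 45 min at room temperature. IC50 values from fitted polarization curves are reported as categories A (≤100 nM), B, C, D (>10 μM).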

T2 sequence (P40763 127-722, species assumed): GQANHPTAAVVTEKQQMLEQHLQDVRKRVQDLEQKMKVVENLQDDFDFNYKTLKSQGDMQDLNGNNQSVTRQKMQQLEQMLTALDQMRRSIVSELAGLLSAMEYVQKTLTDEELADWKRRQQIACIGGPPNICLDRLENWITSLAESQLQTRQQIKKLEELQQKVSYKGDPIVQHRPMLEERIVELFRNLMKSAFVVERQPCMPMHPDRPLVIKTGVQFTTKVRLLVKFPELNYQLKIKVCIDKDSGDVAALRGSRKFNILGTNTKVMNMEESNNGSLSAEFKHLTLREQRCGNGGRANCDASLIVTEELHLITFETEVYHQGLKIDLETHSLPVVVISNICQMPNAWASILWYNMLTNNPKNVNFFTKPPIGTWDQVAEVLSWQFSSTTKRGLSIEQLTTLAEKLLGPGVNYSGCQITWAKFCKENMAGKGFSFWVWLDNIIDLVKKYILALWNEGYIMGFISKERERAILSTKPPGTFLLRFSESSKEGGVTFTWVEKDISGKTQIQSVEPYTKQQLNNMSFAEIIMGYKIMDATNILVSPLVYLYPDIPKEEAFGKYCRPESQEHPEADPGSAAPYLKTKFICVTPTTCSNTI

Structure (SMILES) | IC50 [1] | IC50 [2]
CC(=O)N1CC(NC(=O)[C@@H]2CC[C@@H]3C[C@H]4C[C@H]4C[C@H](NC(=O)c4cc5cc(C(F)P(=O)(O)O)ccc5s4)C(=O)N32)C(F)(F)C1 (stereo partly drawn) [Example 358, ((2-(((3S,6S,7aS,8aR,9aR)-3-((1-acetyl-4,4-difluoropyrrolidin-3-yl)carbamoyl)-5-oxodecahydro-1H-cyclopropa[d]pyrrolo[1,2-a]azocin-6-yl)carbamoyl)benzo[b]thiophen-5-yl)fluoromethyl)phosphonic acid] | 3 to 30 µM | 0.1 to 1 µM
O=C(N[C@H]1C[C@@H]2C[C@@H]2C[C@H]2CC[C@@H](C(=O)N3CC(Cc4cncnc4)C3)N2C1=O)c1cc2cc(CP(=O)(O)O)ccc2s1 [Example 364, ((2-(((3S,6S,7aS,8aR,9aR)-5-oxo-3-(3-(pyrimidin-5-ylmethyl)azetidine-1-carbonyl)decahydro-1H-cyclopropa[d]pyrrolo[1,2-a]azocin-6-yl)carbamoyl)benzo[b]thiophen-5-yl)methyl)phosphonic acid] | > 30 µM | 1 to 10 µM
O=C(N[C@H]1C[C@@H]2C[C@@H]2C[C@H]2CC[C@@H](C(=O)N3CC(C(O)c4ccccc4)C3)N2C1=O)c1cc2cc(CP(=O)(O)O)ccc2s1 (stereo partly drawn) [Example 365, ((2-(((3S,6S,7aS,8aR,9aR)-3-(3-(hydroxy(phenyl)methyl)azetidine-1-carbonyl)-5-oxodecahydro-1H-cyclopropa[d]pyrrolo[1,2-a]azocin-6-yl)carbamoyl)benzo[b]thiophen-5-yl)methyl)phosphonic acid] | 3 to 30 µM | 1 to 10 µM
Cc1nc(N2C[C@H](NC(=O)[C@@H]3CC[C@@H]4C[C@H]5C[C@H]5C[C@H](NC(=O)c5cc6cc(C(F)P(=O)(O)O)ccc6s5)C(=O)N43)[C@@H](F)C2)n[nH]1 (stereo partly drawn) [Example 366, (fluoro(2-(((3S,6S,7aS,8aR,9aR)-3-(((3S,4S)-4-fluoro-1-(5-methyl-1H-1,2,4-triazol-3-yl)pyrrolidin-3-yl)carbamoyl)-5-oxodecahydro-1H-cyclopropa[d]pyrrolo[1,2-a]azocin-6-yl)carbamoyl)benzo[b]thiophen-5-yl)methyl)phosphonic acid] | 3 to 30 µM | 0.1 to 1 µM
Cn1ccnc1N1C[C@H](NC(=O)[C@@H]2CC[C@@H]3C[C@H]4C[C@H]4C[C@H](NC(=O)c4cc5cc(C(F)P(=O)(O)O)ccc5s4)C(=O)N32)[C@@H](F)C1 (stereo partly drawn) [Example 367, (fluoro(2-(((3S,6S,7aS,8aR,9aR)-3-(((3S,4S)-4-fluoro-1-(1-methyl-1H-imidazol-2-yl)pyrrolidin-3-yl)carbamoyl)-5-oxodecahydro-1H-cyclopropa[d]pyrrolo[1,2-a]azocin-6-yl)carbamoyl)benzo[b]thiophen-5-yl)methyl)phosphonic acid] | 3 to 30 µM | < 0.1 µM
O=C(N[C@H]1C[C@@H]2C[C@@H]2C[C@H]2CC[C@@H](C(=O)N3CC(Cc4ccccc4F)C3)N2C1=O)c1cc2cc(CP(=O)(O)O)ccc2s1 [Example 368, ((2-(((3S,6S,7aS,8aR,9aR)-3-(3-(2-fluorobenzyl)azetidine-1-carbonyl)-5-oxodecahydro-1H-cyclopropa[d]pyrrolo[1,2-a]azocin-6-yl)carbamoyl)benzo[b]thiophen-5-yl)methyl)phosphonic acid] | 3 to 30 µM | 1 to 10 µM
O=C(N[C@H]1C[C@@H]2C[C@@H]2C[C@H]2CC[C@@H](C(=O)N3CC(Cc4ccc(F)cc4)C3)N2C1=O)c1cc2cc(CP(=O)(O)O)ccc2s1 [Example 369, ((2-(((3S,6S,7aS,8aR,9aR)-3-(3-(4-fluorobenzyl)azetidine-1-carbonyl)-5-oxodecahydro-1H-cyclopropa[d]pyrrolo[1,2-a]azocin-6-yl)carbamoyl)benzo[b]thiophen-5-yl)methyl)phosphonic acid] | 3 to 30 µM | 0.1 to 1 µM
O=C(N[C@H]1C[C@@H]2C[C@@H]2C[C@H]2CC[C@@H](C(=O)N3CCOc4ccccc43)N2C1=O)c1cc2cc(C(F)P(=O)(O)O)ccc2s1 (stereo partly drawn) [Example 372, ((2-(((3S,6S,7aS,8aR,9aR)-3-(3,4-dihydro-2H-benzo[b][1,4]oxazine-4-carbonyl)-5-oxodecahydro-1H-cyclopropa[d]pyrrolo[1,2-a]azocin-6-yl)carbamoyl)benzo[b]thiophen-5-yl)fluoromethyl)phosphonic acid] | 3 to 30 µM | 1 to 10 µM
O=C(N[C@H]1C[C@@H]2C[C@@H]2C[C@H]2CC[C@@H](C(=O)N3CCCOc4ccccc43)N2C1=O)c1cc2cc(C(F)P(=O)(O)O)ccc2s1 (stereo partly drawn) [Example 373, (fluoro(2-(((3S,6S,7aS,8aR,9aR)-5-oxo-3-(2,3,4,5-tetrahydrobenzo[b][1,4]oxazepine-5-carbonyl)decahydro-1H-cyclopropa[d]pyrrolo[1,2-a]azocin-6-yl)carbamoyl)benzo[b]thiophen-5-yl)methyl)phosphonic acid] | 3 to 30 µM | 1 to 10 µM
O=C(N[C@H]1C[C@@H]2C[C@@H]2C[C@H]2CC[C@@H](C(=O)N3CC(c4cc(C(F)F)on4)C3)N2C1=O)c1cc2cc(C(F)P(=O)(O)O)ccc2s1 (stereo partly drawn) [Example 375, ((2-(((3S,6S,7aS,8aR,9aR)-3-(3-(5-(difluoromethyl)isoxazol-3-yl)azetidine-1-carbonyl)-5-oxodecahydro-1H-cyclopropa[d]pyrrolo[1,2-a]azocin-6-yl)carbamoyl)benzo[b]thiophen-5-yl)fluoromethyl)phosphonic acid] | 3 to 30 µM | 0.1 to 1 µM
Cc1cnc(N2C[C@H](NC(=O)[C@@H]3CC[C@@H]4C[C@H]5C[C@H]5C[C@H](NC(=O)c5cc6cc(C(F)P(=O)(O)O)ccc6s5)C(=O)N43)[C@@H](F)C2)n1C (stereo partly drawn) [Example 376, ((2-(((3S,6S,7aS,8aR,9aR)-3-(((3S,4S)-1-(1,5-dimethyl-1H-imidazol-2-yl)-4-fluoropyrrolidin-3-yl)carbamoyl)-5-oxodecahydro-1H-cyclopropa[d]pyrrolo[1,2-a]azocin-6-yl)carbamoyl)benzo[b]thiophen-5-yl)fluoromethyl)phosphonic acid] | 3 to 30 µM | < 0.1 µM
O=C(N[C@H]1C[C@@H]2C[C@@H]2C[C@H]2CC[C@@H](C(=O)N3CC(Cc4ccc(F)cc4F)C3)N2C1=O)c1cc2cc(CP(=O)(O)O)ccc2s1 [Example 377, ((2-(((3S,6S,7aS,8aR,9aR)-3-(3-(2,4-difluorobenzyl)azetidine-1-carbonyl)-5-oxodecahydro-1H-cyclopropa[d]pyrrolo[1,2-a]azocin-6-yl)carbamoyl)benzo[b]thiophen-5-yl)methyl)phosphonic acid] | 3 to 30 µM | 0.1 to 1 µM
O=C(N[C@H]1C[C@@H]2C[C@@H]2C[C@H]2CC[C@@H](C(=O)N3CC(Cc4cc(F)ccc4F)C3)N2C1=O)c1cc2cc(CP(=O)(O)O)ccc2s1 [Example 378, ((2-(((3S,6S,7aS,8aR,9aR)-3-(3-(2,5-difluorobenzyl)azetidine-1-carbonyl)-5-oxodecahydro-1H-cyclopropa[d]pyrrolo[1,2-a]azocin-6-yl)carbamoyl)benzo[b]thiophen-5-yl)methyl)phosphonic acid] | 3 to 30 µM | 1 to 10 µM
Cn1cc(CC2CN(C(=O)[C@@H]3CC[C@@H]4C[C@H]5C[C@H]5C[C@H](NC(=O)c5cc6cc(CP(=O)(O)O)ccc6s5)C(=O)N43)C2)cn1 [Example 379, ((2-(((3S,6S,7aS,8aR,9aR)-3-(3-((1-methyl-1H-pyrazol-4-yl)methyl)azetidine-1-carbonyl)-5-oxodecahydro-1H-cyclopropa[d]pyrrolo[1,2-a]azocin-6-yl)carbamoyl)benzo[b]thiophen-5-yl)methyl)phosphonic acid] | 3 to 30 µM | 1 to 10 µM
O=C(N[C@H]1C[C@@H]2C[C@@H]2C[C@H]2CC[C@@H](C(=O)N3CC(Cc4cccnc4)C3)N2C1=O)c1cc2cc(CP(=O)(O)O)ccc2s1 [Example 380, ((2-(((3S,6S,7aS,8aR,9aR)-5-oxo-3-(3-(pyridin-3-ylmethyl)azetidine-1-carbonyl)decahydro-1H-cyclopropa[d]pyrrolo[1,2-a]azocin-6-yl)carbamoyl)benzo[b]thiophen-5-yl)methyl)phosphonic acid] | 3 to 30 µM | 0.1 to 1 µM
Cc1ccc2c(c1)OCCN2C(=O)[C@@H]1CC[C@@H]2C[C@H]3C[C@H]3C[C@H](NC(=O)c3cc4cc(C(F)P(=O)(O)O)ccc4s3)C(=O)N21 (stereo partly drawn) [Example 383, (fluoro(2-(((3S,6S,7aS,8aR,9aR)-3-(7-methyl-3,4-dihydro-2H-benzo[b][1,4]oxazine-4-carbonyl)-5-oxodecahydro-1H-cyclopropa[d]pyrrolo[1,2-a]azocin-6-yl)carbamoyl)benzo[b]thiophen-5-yl)methyl)phosphonic acid] | 0.3 to 3 µM | 1 to 10 µM
